{
  "source": "patent US20140024683A1",
  "about": "“CHLORIDE CHANNEL AND CHLORIDE TRANSPORTER MODULATORS FOR THERAPY IN SMOOTH MUSCLE DISEASES” (priority 2011, published 2014)",
  "key": {"[1]": {"system": "human airway smooth muscle cells", "assay": "FLIPR membrane potentiometric dye assay (Example 21)", "format": "cell-based", "method": "Immortalized airway smooth muscle cell lines modified to stably express human telomerase reverse transcriptase were a kind gift from Dr. William Gerthoffer (University of Southern Alabama, Mobile, Ala.) prepared as described previously (Gosens et al., 2006) and grown in Dulbecco's Modified Eagle's Medium/F12 media (GIBCO, Grand Island, N.Y.), with 10% FBS and antibiotics.\nImmortalized human airway smooth muscle cells were cultured on black-walled 96 well plates to 100% confluence, and were washed four times with warmed (37° C.) assay buffer of the following composition (in mM): NaCl 140, KCl 4.7, CaCl2 2.5, MgCl2 1.2, HEPES 11, D-glucose 10. A stock solution (100% dye) of FLIPR blue dye was prepared by reconstitution of 1 vial (125 mg) with 100 ml assay buffer. A 50% working stock was prepared by further diluting the reconstituted blue dye 1:1 with assay buffer and was used to load cells (90 μl/well) over 45 min at 37° C. in a humidified cell culture incubator (95% air/5% CO2). All reagents were dissolved in assay buffer. Fluorescence was measured with a Flex Station 3 (Molecular Devices) using an excitation wavelength of 530 nm, emission wavelength of 565 nm and a cutoff filter of 550 nm. Baseline fluorescence was measured every 2 seconds for 1 minute then for 2 minutes after injection of vehicle or compound of interest as indicated (using the Flexstation's 3 integrated injection capabilities).\nHuman airway smooth muscle cells were incubated with FLIPR membrane potentiometric dye to assess if the chloride channel blockers changed membrane potential at the cellular level. FLIPR fluorescence will increase with depolarization, and decrease with hyperpolarization. […] Therefore, chloride channel blockade, but not NKCC blockade, hyperpolarized human airway smooth muscle cells."}, "[2]": {"system": "human airway smooth muscle cells", "assay": "MQAE fluorescence assay of intracellular chloride", "format": "cell-based", "method": "To determine whether blockade of CaCCs or NKCCs induce changes in intracellular chloride concentrations in human airway smooth muscle cells, the MQAE in vitro fluorescent dye assay (Invitrogen) was used. Briefly, human airway smooth muscle cells were grown to 100% confluence in 96-well black-walled plates. Cells were loaded overnight with 10 mM MQAE in serum-free basal cell culture medium (M199, Invitrogen) and were washed once with warmed (37° C.) normal-chloride buffer [consisting of (in mM) 130 sodium chloride, 2 CaCl2, 1 MgCl2, 10 D-glucose, and 10 HEPES, pH 7.4]. […] An increase in fluorescence represents decreased intracellular chloride (removal of halide quenching of MQAE) while decreased fluorescence represents increased intracellular chloride (enhanced halide quenching of MQAE)."}, "[3]": {"system": "human airway smooth muscle strips", "assay": "Organ bath force, acetylcholine-induced contractions of human airway smooth muscle strips after pretreatment", "details": "100 μM, separate blockade (alone)", "method": "Human muscle tissue was acquired from excess lung airways trimmed during surgery from healthy lung transplant donors. Acquired tissue was stored overnight at 20° C. Airway smooth muscle contractions measured ex vivo in organ baths were performed as previously described (Gallos et al., 2008; Gallos et al., 2009, Gallos et al., 2011; Gleason et al., 2010; Yim et al., 2011; Mitzuta et al., 2008). Closed guinea pig tracheal rings or strips of human airway smooth muscle (tracheal or main stem bronchus) were suspended in organ baths, which had 95% oxygen constantly perfusing through Dulbecco's Modified Eagle Medium. Rings were cut on the cartilaginous borders of the smooth muscle. The epithelial layer was dissected under microscopic assistance. […]\nFollowing equilibration, in guinea pig experiments, the capsaicin analog N-vanillylnonanamide (10 μM final) was added to the organ baths to first activate and then deplete nonadrenergic, noncholinergic nerves. […] To avoid bias between treatment groups, tissues were contracted to individually calculated EC50 values for acetylcholine and tissues with similar Emax values were randomly assigned to treatments within individual experiments. […]"}, "[4]": {"system": "guinea pig tracheal rings", "assay": "Potentiation of isoproterenol relaxation of acetylcholine contraction, guinea pig tracheal rings", "details": "10 μM bumetanide", "method": "Animal protocols were approved by the Columbia University Animal Care and Use Committee. Male Hartley guinea pigs weighing approximately 400 g were anesthetized with intraperitoneal injection of sodium pentobarbital (100 mg/kg). Trachea were removed and transferred to ice cold Krebs-Henseleit (KH) buffer of the following composition (in mM): NaCl 118, KCl 5.6, CaCl2 0.5, MgSO4 0.24, NaH2PO4 1.3, NaHCO3 25, glucose 5.6, pH 7.4. Epithelial-denuded tracheal rings were prepared using a dissecting microscope. Epithelium was removed by gently passing cotton fibers through the lumen of the tracheal rings. The rings were suspended in 4 mL-water jacketed organ baths (37° C.: Radnoti Glass Technology, Monrovia, Calif.) and connected to a Grass FT03 force transducer (Grass Telefactor, West Warwick, R.I.) using silk sutures. The transducers were coupled to the computer with BioPac hardware and data was collected using Acqknowledge 7.3.3 software (BioPac Systems, Goleta, Calif.). KH buffer was bubbled with a gas mixture of 95% oxygen and 5% carbon dioxide and buffer was exchanged every 15 minutes for 1 hour during equilibration of tracheal rings at 1 g resting tension. […].\nTherefore, we tested whether the chloride channel blockers or modulation of chloride flux could be used in combination with β-agonists to potentiate their effects. […]. Therefore, a combination of treatment with compound 13 and bumetanide potentiated the relaxation effect of isoproterenol."}},
  "data": [
    {"molecule": "O=C(O)c1cccnc1Nc1cccc(C(F)(F)F)c1", "note": "[niflumic acid]", "values": [
      {"measurement": "membrane potential, continuous fluorescence recording (representative tracing)", "setting": "[1]", "result": "hyperpolarize"},
      {"measurement": "change in relative fluorescent units (membrane potential, FLIPR)", "setting": "[1]; 100 μM, n=12", "result": "−254.7+/−37 RFU"},
      {"measurement": "intracellular chloride (MQAE fluorescence)", "setting": "[2]; 100 μM niflumic acid", "result": "increases intracellular chloride"},
      {"measurement": "effect on acetylcholine-induced contraction", "setting": "[3]", "result": "does not significantly reduce contraction"}
    ]},
    {"molecule": "CCCCNc1cc(C(=O)O)cc(S(N)(=O)=O)c1Oc1ccccc1", "note": "[bumetanide]", "values": [
      {"measurement": "change in membrane potential (FLIPR)", "setting": "[1]; 10 μM bumetanide", "result": "did not cause a significant change"},
      {"measurement": "intracellular chloride (MQAE fluorescence)", "setting": "[2]; 10 μM bumetanide", "result": "impairs chloride entry"},
      {"measurement": "intracellular chloride (MQAE fluorescence)", "setting": "[2]; 10 μM bumetanide, listed as Bumetanide", "result": "decreases [Cl^−]i"},
      {"measurement": "shift of the EC50 of isoproterenol", "setting": "[4]", "result": 2.4, "unit": "fold"},
      {"measurement": "effect on acetylcholine-induced contraction", "setting": "[3]", "result": "does not significantly reduce contraction"}
    ]}
  ]
}
